The test system of the experiment is subcutaneous CT26 colorectal carcinoma tumors. Briefly: Tumor volume in mice bearing subcutaneous CT26 tumors. As to conditions: BALB/c mice bearing CT26 tumor, i.v. of 1 mM TU:MTDs twice or three times, n = 3, observed until 9 days. The experiment is classed as in vivo. The procedure: Figure 1 Identification of TU17:MTD as a tumor targeting peptide (A) Schematic diagram of the fusion peptides consisting of the tumor-homing motif, linker, and mitochondrial targeting domain (MTD). (B) Tumors were generated over 2 weeks after s.c. injection of CT26 cells into the backs of BALB/c mice. […] Arrows indicate the points of peptide injection. P values < 0.02 (control group vs TU17:MTD at day 5, 6, 7, 8, and 9) (C) HCT116, HeLa, A549, MCF-7, PC3, and BJAB cells were treated with TU17:MTD (0 ~ 20 μM) for 30 minutes, and cell viability was monitored using XTT assays. *P < 0.05 (D) Primary splenocytes and macrophages were treated with TU17:MTD (0 ~ 20 μM) for 30 minutes, and cell viability was monitored by XTT assay. *P < 0.05 (E) CT26 cells were treated with R8:MTD, TU17:MTD, TU17-2:MTD or TU17:MTD^4A (0 ~ 40 μM) for 4 hours, and cell viability was monitored by XTT assay. Results in C to E are expressed as means ± SD (triplicates), and are representative of at least two independent experiments. P values are for experimental groups versus controls and were calculated using Dunnett's t-test. *P < 0.05.
Figure 3 Effects of TU17:MTD, TU17-2:MTD, and TU17-2:D(KLAKLAK)2 on tumor tissues in vivo (A) Tumors were generated over 7~8 days after s.c. injection of CT26 cells into the backs of BALB/c mice. […]

Bridge positions count the residues as written; N and C are the ends. Ends that are not written are not given here.

As for “CNGRCVSGCAGRCGGKLLNLISKLF [TU2:MTD, MTD peptide fused with tumor-homing motif, linear]”, the Toxicity/Tumor growth entry is listed as “NR (NR; no regression)”. In the case of “KLLNLISKLFCRGDKRLYDC (disulfide 11-20 (inferred)) [TU11:MTD]” it was “Toxic”.

These data come from PMC5078025, “Necrosis-inducing peptide has the beneficial effect on killing tumor cells through neuropilin (NRP-1) targeting” (Oncotarget, 2016).
